Experimental data published in patent US20100035941A1, “METHODS FOR INCREASING BLOOD FLOW AND/OR PROMOTING TISSUE REGENERATION” (priority 2006, published 2010).
Like-named read-outs stand apart in the source and are kept apart here.

Tests used:
[1] = system: WBC; conditions: Phase 1 study; single dose of 80 μg/kg; cited from earlier work
[2] = system: ischemic hind limb; test: Tissue regeneration in diabetic animal ischemic model: limb blood flow restoration, LASER Doppler; assay type: in vivo, male nude Hfh11 mice; conditions: diabetic mice
Protocol: Three to four weeks after injection of STZ the left hind limb was made ischemic by ligation of the iliac artery and removal of a 0.5-1 cm segment distal to the ligation.
One group of additional mice (n=11) was injected intramuscularly into the ischemic hindlimb with human non-diabetic-derived unmobilized CD34+ (unCD34+) peripheral blood mononuclear cells (PBMCs), two to four hours after surgery. […] Untreated mice served as controls (n=10).
Limb blood flow restoration was analyzed immediately before and after surgery and at various times thereafter in the entire limb distal to the ligation using LASER Doppler analysis.

[3] = system: granulocyte macrophage (CFU-GM), erythroid (BFU-E), and multipotential (CFU-GEMM) progenitor cells; conditions: mice; for Absolute Number Progenitors Per ML Blood, Methylcellulose Culture, BFU-E / Absolute Number Progenitors Per ML Blood, Methylcellulose Culture, CFU-GEMM / Absolute Number Progenitors Per ML Blood, Methylcellulose Culture, CFU-GM: 1 hour post administration; for Absolute Progenitors Per ML Blood, Methylcellulose Culture, BFU-E / Absolute Progenitors Per ML Blood, Methylcellulose Culture, CFU-GEMM / Absolute Progenitors Per ML Blood, Methylcellulose Culture, CFU-GM: single s.c. injection of 5 mg/Kg
Protocol: Progenitors were stimulated to form colonies in vitro with the combination of 1U/ml rhu Epo, 50 ng/ml rhu SLF, 5% Vol/Vol pokeweed mitogen mouse spleen cell conditioned medium (PWMSCM), and 0.1 mM hemin. Plates were scored 7 days after incubation.

[4] = system: nucleated cells per ml of blood; conditions: average of 5 donors, s.c. 80 μg/kg
Protocol: Five healthy human volunteers having initial white blood cell counts of 4,500-7,500 cells/mm^3 were used in the study. […] Blood samples were obtained via catheter prior to the dose, and at various times up to 24 hours after dosing.
(§1) All progenitor cell results are based on the scoring of 3 culture plates per assay per point.

[5] = system: CFU-GM, BFU-E and CFU-GEMM progenitor cells; conditions: s.c. 80 μg/kg; for mean fold change vs T=0, methylcellulose culture BFU-E, MEAN / mean fold change vs T=0, methylcellulose culture CFU-GEMM, MEAN / mean fold change vs T=0, methylcellulose culture CFU-GM, MEAN / methylcellulose culture BFU-E, % CHG / methylcellulose culture CFU-GEMM, % CHG / methylcellulose culture CFU-GM, % CHG: 5 donors
Protocol: as §1
(§2) For the progenitor cell numbers and cycling status, the numbers of CFU-GM, BFU-E and CFU-GEMM in methylcellulose cultures by stimulation of the cells with 1 Unit (U)/ml recombinant human (rhu) erythropoietin, 100 U/ml rhu granulocyte-macrophage colony stimulating factor (GM-CSF), 100 U/ml rhu interleukin-3 (IL-3) and 50 ng/ml rhu steel factor (SLF=stem cell factor (SCF)). The CFU-GM were also evaluated in agar cultures stimulated with 100 U/ml rhu GM-CSF and 50 ng/ml rhu SLF. For both types of assays, colonies were scored after 14 day incubation in a humidified atmosphere with 5% CO2 and lowered (5%) O2 tension. Cell cycling status of progenitors was measured using a high specific activity tritiated thymidine kill technique as previously described (Broxmeyer, H. E., et al., Exp. Hematol. (1989) 17:455-459).

[6] = system: CFU-GM progenitor cells; conditions: donors' mean, s.c. 80 μg/kg
Protocol: as §1, §2

[7] = system: bone marrow stem cells; conditions: rats; coronary ligation; injected within 4 to 6 hours, with or without rhG-CSF
Protocol: Adult rats are anesthetized and a thoracotomy is performed. The descending branch of the left coronary artery is ligated and not reperfused. […] Control rats are not treated with the reagents. The animals are monitored at one-week intervals by echocardiography and MRI. The experiment is terminated at 2, 6 to 12 weeks post-surgery. On the day of sacrifice, the hemodynamic functions are analyzed for left ventricle-end diastolic pressure, left ventricle-developed pressure and the rate of rise and fall of left ventricle pressure. The heart is then arrested in diastole and perfused via the abdominal aorta to flush residual blood from the vascular network of the myocardium. This is followed by perfusion of the heart with 10% formalin. Several slices are made through the fixed heart and these are embedded in paraffin and sections. The sections are stained and analyzed by light microscopy to determine the size of the infarct in the treated and control animals. Tissue sections from hearts taken at 2 weeks after surgery are stained with antibodies specific for immature, developing myocyte and blood vessel proteins and analyzed by confocal microscopy. The immunohistochemical analysis involves the identification of transcription factors and surface markers expressed in early stages of myocyte development.

[8] = system: progenitor cells; conditions: AMD3100 5 mg/Kg s.c. plus MIP-1α 5 μg I.V., 11 hours after rhu G-CSF or saline, 1 hour prior to assessing the blood
Protocol: Groups of mice were randomized to receive control diluent (saline) or G-CSF at a dose of 2.5 μg per mouse, twice a day, for two days via s.c. injection. […] One hour later, the mice were sacrificed and the number of progenitor cells per mL of blood were measured.

[9] = system: circulating CD34+ progenitor/stem cells; conditions: Phase 1 study; single dose of 80 μg/kg; 6 hour time point; cited from earlier work
[10] = ischemic hind limb, 5 mg/kg intraperitoneally on days 0 and 2
[11] = single s.c. injection 2.5 mg/kg

c1cc(CN2CCCNCCNCCCNCC2)ccc1CN1CCCNCCNCCCNCC1 [AMD3100, 1,1′-[1,4-phenylene-bis(methylene)]-bis-1,4,8,11-tetraazacyclotetradecane]
WBC count [1]: 17,000 /μl
time at which drug induced improvement was observed [2, 10]: two
time by which blood flow had reached its maximum [2, 10]: seven
blood flow maintained, mean % of the initial flow (plateau) ([2]; ischemic hind limb, 5 mg/kg intraperitoneally on the day of and two days after surgery, mean flow d8-d24): 74.6±2.8%
overall effect of systemic therapy on blood flow restoration ([2]; ischemic limb, systemic (intraperitoneal) treatment): accelerated blood flow restoration, but did not increase it
Fold Change Compared to Time 0, Progenitors, Methylcellulose Culture, BFU-E ([3]; Time 2′): 2.07
Fold Change Compared to Time 0, Progenitors, Methylcellulose Culture, CFU-GEMM ([3]; Time 2′): 1.85
Fold Change Compared to Time 0, Progenitors, Methylcellulose Culture, GM ([3]; Time 2′): 2.86
Fold Change Compared to Time 0, Progenitors, Methylcellulose Culture, BFU-E ([3]; Time 15″): 2.72
Fold Change Compared to Time 0, Progenitors, Methylcellulose Culture, CFU-GEMM ([3]; Time 15″): 3.51
Fold Change Compared to Time 0, Progenitors, Methylcellulose Culture, GM ([3]; Time 15″): 2.73
Fold Change Compared to Time 0, Progenitors, Methylcellulose Culture, BFU-E ([3]; Time 30″): 4.24
Fold Change Compared to Time 0, Progenitors, Methylcellulose Culture, CFU-GEMM ([3]; Time 30″): 4.41
Fold Change Compared to Time 0, Progenitors, Methylcellulose Culture, GM ([3]; Time 30″): 6.23
Absolute Number Progenitors Per ML Blood, Methylcellulose Culture, BFU-E ([3]; single s.c. injection 1 mg/kg): 62 Per ML Blood
Absolute Number Progenitors Per ML Blood, Methylcellulose Culture, CFU-GEMM ([3]; single s.c. injection 1 mg/kg): 27.1 Per ML Blood
Absolute Number Progenitors Per ML Blood, Methylcellulose Culture, CFU-GM ([3]; single s.c. injection 1 mg/kg): 424 Per ML Blood
Absolute Number Progenitors Per ML Blood, Methylcellulose Culture, BFU-E [3, 11]: 98.9 Per ML Blood
Absolute Number Progenitors Per ML Blood, Methylcellulose Culture, CFU-GEMM [3, 11]: 70.6 Per ML Blood
Absolute Number Progenitors Per ML Blood, Methylcellulose Culture, CFU-GM [3, 11]: 687.6 Per ML Blood
Absolute Number Progenitors Per ML Blood, Methylcellulose Culture, BFU-E ([3]; single s.c. injection 5 mg/kg): 92.8 Per ML Blood
Absolute Number Progenitors Per ML Blood, Methylcellulose Culture, CFU-GEMM ([3]; single s.c. injection 5 mg/kg): 69.5 Per ML Blood
Absolute Number Progenitors Per ML Blood, Methylcellulose Culture, CFU-GM ([3]; single s.c. injection 5 mg/kg): 608.4 Per ML Blood
Absolute Number Progenitors Per ML Blood, Methylcellulose Culture, BFU-E ([3]; single s.c. injection 10 mg/kg): 120.5 Per ML Blood
Absolute Number Progenitors Per ML Blood, Methylcellulose Culture, CFU-GEMM ([3]; single s.c. injection 10 mg/kg): 79.8 Per ML Blood
Absolute Number Progenitors Per ML Blood, Methylcellulose Culture, CFU-GM ([3]; single s.c. injection 10 mg/kg): 825.6 Per ML Blood
Absolute Progenitors Per ML Blood, Methylcellulose Culture, BFU-E ([3]; 15″): 134.5 Per ML Blood
Absolute Progenitors Per ML Blood, Methylcellulose Culture, CFU-GEMM ([3]; 15″): 90.4 Per ML Blood
Absolute Progenitors Per ML Blood, Methylcellulose Culture, CFU-GM ([3]; 15″): 791.6 Per ML Blood
Absolute Progenitors Per ML Blood, Methylcellulose Culture, BFU-E ([3]; 30″): 209.3 Per ML Blood
Absolute Progenitors Per ML Blood, Methylcellulose Culture, CFU-GEMM ([3]; 30″): 113.5 Per ML Blood
Absolute Progenitors Per ML Blood, Methylcellulose Culture, CFU-GM ([3]; 30″): 1805.5 Per ML Blood
Absolute Progenitors Per ML Blood, Methylcellulose Culture, BFU-E ([3]; 120″): 102.3 Per ML Blood
Absolute Progenitors Per ML Blood, Methylcellulose Culture, CFU-GEMM ([3]; 120″): 47.6 Per ML Blood
Absolute Progenitors Per ML Blood, Methylcellulose Culture, CFU-GM ([3]; 120″): 528.7 Per ML Blood
Fold Change Compared to TIME = 0, nucleated cellularity PBL-LD, MEAN ([4]; T = 1 hour): 1.86
Fold Change Compared to TIME = 0, nucleated cellularity PBL-US, MEAN ([4]; T = 1 hour): 1.69
nucleated cellularity PBL-LD, % CHG ([4]; T = 1 hour): 86.2%
nucleated cellularity PBL-US, % CHG ([4]; T = 1 hour): 68.6%
Fold Change Compared to TIME = 0, nucleated cellularity PBL-LD, MEAN ([4]; T = 3 hours): 2.86
Fold Change Compared to TIME = 0, nucleated cellularity PBL-US, MEAN ([4]; T = 3 hours): 2.80
nucleated cellularity PBL-LD, % CHG ([4]; T = 3 hours): 185.6%
nucleated cellularity PBL-US, % CHG ([4]; T = 3 hours): 180.2%
Fold Change Compared to TIME = 0, nucleated cellularity PBL-LD, MEAN ([4]; T = 6 hours): 3.66
Fold Change Compared to TIME = 0, nucleated cellularity PBL-US, MEAN ([4]; T = 6 hours): 3.26
nucleated cellularity PBL-LD, % CHG ([4]; T = 6 hours): 266.3%
nucleated cellularity PBL-US, % CHG ([4]; T = 6 hours): 225.8%
Fold Change Compared to TIME = 0, nucleated cellularity PBL-LD, MEAN ([4]; T = 9 hours): 3.64
Fold Change Compared to TIME = 0, nucleated cellularity PBL-US, MEAN ([4]; T = 9 hours): 3.09
nucleated cellularity PBL-LD, % CHG ([4]; T = 9 hours): 264.3%
nucleated cellularity PBL-US, % CHG ([4]; T = 9 hours): 209.4%
Fold Change Compared to TIME = 0, nucleated cellularity PBL-LD, MEAN ([4]; T = 24 hours): 1.05
Fold Change Compared to TIME = 0, nucleated cellularity PBL-US, MEAN ([4]; T = 24 hours): 1.07
nucleated cellularity PBL-LD, % CHG ([4]; T = 24 hours): 4.6%
nucleated cellularity PBL-US, % CHG ([4]; T = 24 hours): 7.0%
mean fold change vs T=0, methylcellulose culture BFU-E, MEAN ([5]; T = 1 hour): 1.99
mean fold change vs T=0, methylcellulose culture CFU-GEMM, MEAN ([5]; T = 1 hour): 2.32
mean fold change vs T=0, methylcellulose culture CFU-GM, MEAN ([5]; T = 1 hour): 4.77
methylcellulose culture BFU-E, % CHG ([5]; T = 1 hour): 98.9%
methylcellulose culture CFU-GEMM, % CHG ([5]; T = 1 hour): 131.8%
methylcellulose culture CFU-GM, % CHG ([5]; T = 1 hour): 376.7%
mean fold change vs T=0, methylcellulose culture BFU-E, MEAN ([5]; T = 3 hours): 3.21
mean fold change vs T=0, methylcellulose culture CFU-GEMM, MEAN ([5]; T = 3 hours): 4.33
mean fold change vs T=0, methylcellulose culture CFU-GM, MEAN ([5]; T = 3 hours): 13.66
methylcellulose culture BFU-E, % CHG ([5]; T = 3 hours): 221.3%
methylcellulose culture CFU-GEMM, % CHG ([5]; T = 3 hours): 332.5%
methylcellulose culture CFU-GM, % CHG ([5]; T = 3 hours): 1266.5%
mean fold change vs T=0, methylcellulose culture BFU-E, MEAN ([5]; T = 6 hours): 6.01
mean fold change vs T=0, methylcellulose culture CFU-GEMM, MEAN ([5]; T = 6 hours): 10.07
mean fold change vs T=0, methylcellulose culture CFU-GM, MEAN ([5]; T = 6 hours): 21.71
methylcellulose culture BFU-E, % CHG ([5]; T = 6 hours): 500.5%
methylcellulose culture CFU-GEMM, % CHG ([5]; T = 6 hours): 907.2%
methylcellulose culture CFU-GM, % CHG ([5]; T = 6 hours): 2070.6%
mean fold change vs T=0, methylcellulose culture BFU-E, MEAN ([5]; T = 9 hours): 4.34
mean fold change vs T=0, methylcellulose culture CFU-GEMM, MEAN ([5]; T = 9 hours): 5.25
mean fold change vs T=0, methylcellulose culture CFU-GM, MEAN ([5]; T = 9 hours): 10.47
methylcellulose culture BFU-E, % CHG ([5]; T = 9 hours): 334.4%
methylcellulose culture CFU-GEMM, % CHG ([5]; T = 9 hours): 425.4%
methylcellulose culture CFU-GM, % CHG ([5]; T = 9 hours): 947.3%
mean fold change vs T=0, methylcellulose culture BFU-E, MEAN ([5]; T = 24 hours): 1.26
mean fold change vs T=0, methylcellulose culture CFU-GEMM, MEAN ([5]; T = 24 hours): 1.53
mean fold change vs T=0, methylcellulose culture CFU-GM, MEAN ([5]; T = 24 hours): 1.56
methylcellulose culture BFU-E, % CHG ([5]; T = 24 hours): 26.3%
methylcellulose culture CFU-GEMM, % CHG ([5]; T = 24 hours): 53.2%
methylcellulose culture CFU-GM, % CHG ([5]; T = 24 hours): 55.5%
time after injection of maximal fold increases in circulating levels of progenitor cells ([5]; all five human donors): 6 h
agar culture CFU-GM, % CHG ([6]; T = 1 hour): 180.8%
mean fold change vs T=0, agar culture CFU-GM, MEAN ([6]; T = 1 hour): 2.81
agar culture CFU-GM, % CHG ([6]; T = 3 hours): 754.1%
mean fold change vs T=0, agar culture CFU-GM, MEAN ([6]; T = 3 hours): 8.54
agar culture CFU-GM, % CHG ([6]; T = 6 hours): 1692.8%
mean fold change vs T=0, agar culture CFU-GM, MEAN ([6]; T = 6 hours): 17.93
agar culture CFU-GM, % CHG ([6]; T = 9 hours): 924.9%
mean fold change vs T=0, agar culture CFU-GM, MEAN ([6]; T = 9 hours): 10.25
agar culture CFU-GM, % CHG ([6]; T = 24 hours): 108.3%
mean fold change vs T=0, agar culture CFU-GM, MEAN ([6]; T = 24 hours): 2.08
expected effect on ischemic myocardium [7]: will lead to regeneration of the dead myocardium
mobilization of progenitor cells in combination with mu MIP-1α [8]: additive to greater than additive
peak increase in circulating CD34+ progenitor/stem cells [9]: 6 fold
